Source: patent US7745410B2, “Bladder tumor-targeting peptide and use thereof” (Kyungpook National University Industry-Academica …, priority 2006, dated 2010)
Positions of bridges follow the written chain, without caps; N, C: chain ends. No end group written: not given here. *: point of attachment. FITC = O=C1OC2(c3ccc(O)cc3Oc3cc(O)ccc32)c2ccc(NC(=S)*)cc21

What was measured:
[1] = system: cells separated from the urine of a patient suffering from bladder tumor; assay: Binding of FITC-peptide to cells collected from urine (fluorescence microscopy); type: cell-based, human; conditions: 4° C., 1 hour; FIG. 7
Protocol: FIG. 7 is a set of fluorescence microscopic photographs showing the binding specificity of the target peptide having FITC attached thereto to cells separated from the urine of a patient suffering from bladder tumor, wherein the green fluorescence represents the peptide according to the present invention, and the blue fluorescence represents the nucleus stained with DAPI;
Urine of a patient that was in the hospital for surgical operation on the bladder tumor was centrifuged with 1500 rpm at 4° C. for 10 minutes to collect cells. As a control, bladder cells, collected from the urine of a normal human in the same manner as described above, were used. Next, the collected cells were allowed to react with the FITC-peptide 1 described in Example <2-2> and the control peptide (SEQ ID NO: 10) at 4° C. for 1 hour. After staining the cells with DAPI, the cells were transferred onto a slide and observed with a fluorescence microscope. Meanwhile, the cells were stained with the PAP staining method (Papanicolau and Marshall, Science 101:519, 1945), currently used as a method for the diagnosis of bladder tumor, to observe the presence of tumor cells.

[2] = system: human bladder tumor tissue; assay: Binding of FITC-peptide to frozen tissue sections (fluorescence microscopy); conditions: 10 μM peptide, 4° C., 1 hour, FIG. 4
Protocol: FIG. 4 is a set of photographs showing the binding specificity to the frozen section of human bladder tumor cells of the peptide according to the present invention having FITC attached thereto, wherein the green fluorescence represents the peptide according to the present invention, and the blue fluorescence represents the nucleus stained with DAPI;
Next, 10 μM of the peptide, FITC-CSNRDARRC, was allowed to react with the tissues at 4° C. for 1 hour. As a control, a peptide (SEQ ID NO: 10; CDASRRNRC), which had the same number of amino acids as the peptide according to the present invention but included a randomly modified amino acid sequence between both terminal cystein residues, was used. After the reaction of each peptide, a mounting solution (molecular Probe) containing a nucleus staining reagent, DAPI (4′,6-diamidino-2-phenylindole), was treated on the surface of the slide according to the method known to one skilled in the art. Then, the slide was observed by using a fluorescence microscope.

[3] = system: BBN-induced bladder tumor; assay: In vivo micro PET imaging after intravenous injection of radiolabeled peptides; set-up: species or system rat; conditions: 14 hours after intravenous injection; tumor-bearing F344 rats; 380 μCi peptide 1, 313 μCi control; FIG. 8
Protocol: For radioiodination, each of CSNRDARRC peptide (SEQ ID NO: 1) and CDASRRNRC control peptide (SEQ ID NO: 10) was added with a tyrosine residue at the N-terminus during synthesis. […] The synthetic peptide was labeled with [131I]NaI by using Iodo-bead (Pierce Biochemical Co., Rockford, Ill.). The bead was washed with phosphate-buffered saline (PBS), pH 7.2 and dried on filter paper for 5 min. The washed bead was added to a solution of [131I]NaI (100 MBq) in PBS. After shaking at RT for 5 min, the peptide solution (14 mg in 20 mL distilled water) was added to the [131I]NaI solution containing Iodo-bead. [131I]NaI (T1/2=[…]) was purchased from Korea Institute of Radiology and Science (KIRAMS; Seoul, Korea). The reaction was allowed to proceed for 15 min at RT by gentle shaking and then stopped by the removal of the bead out of the reaction tube. The 131I-incorporation yield measured by radio-TLC was 47% (silica, 10% ammonium acetate:methanol=30:70). […] The radiochemical purity of final solution was measured to be over 81.2%. […]
In contrast, uptake of the control peptide (313 μCi) was minimal (FIG. 8 D-F). These findings indicate that the radioactivity shown in rat bladder is not a non-specific one from urinary excretion of the radiolabeled peptides but a specific one from the uptake of the peptide by bladder tumor tissues.

[4] = system: malignant melanoma tissue; assay: In vivo targeting after tail vein injection in mouse with induced malignant melanoma; conditions: final 50 μM in blood, 2 hours
Protocol: k: microscopic photograph of malignant melanoma of mouse injected with the peptide according to the present invention and stained with H & E; and
l: fluorescence microscopic photograph of cancer tissue of mouse injected with the peptide according to the present invention and stained with DAPI; and
(§1) The FITC-peptide 1 was injected into the mouse, in which a bladder tumor induced, and into the normal mouse via the tail venous to a final concentration of 50 μM in the blood, followed by circulation for 2 hours. Additionally, to determine whether the peptide according to the present invention specifically targets the bladder tumor in vivo, a malignant melanoma was induced in a mouse (Hyochang Science), and the peptide according to the present invention was injected into the mouse in the same manner as described above. Then, the bladder was removed from each mouse to prepare a frozen section, which, in turn, was stained by H&E staining or cytokeratin staining. Each section was observed by using a fluorescence microscope.

bladder tumor cells = assay: In vivo targeting after tail vein injection (BBN-induced bladder tumor); set-up: species or system rat; conditions: final 50 μM in blood
Text: FIG. 6 is a set of photographs showing the in vivo targeting capability of the peptide according to the present invention, after injecting the peptide having FITC attached thereto into the tail venous vessel of a mouse in which a bladder tumor is induced, wherein the green fluorescence represents the peptide according to the present invention, and the red fluorescence represents an epithelial cell stained with cytokeratin;
(§2) First, 4 week-aged F344 rats (n=10) (Hyochang Science) were fed with water containing 0.05% of N-butyl-N-4-hydroxybutylnitrosoamine (BBN) for 8 weeks to induce a bladder tumor.
as §1

bladder tumor tissue = assay: In vivo targeting after injection into the bladder via the urethra (BBN-induced bladder tumor); set-up: species or system rat; conditions: 50 μM injected into bladder via urethra, 30 minutes, FIG. 5
Text: FIG. 5 is a set of photographs showing the binding specificity to bladder tumor tissue of the peptide according to the present invention having FITC attached thereto, after injecting the peptide into the mouse bladder in which a bladder tumor is induced, wherein the green fluorescence represents the peptide according to the present invention, and the red fluorescence represents an epithelial cell stained with cytokeratin;
as §2
50 μM of FITC-CSNRDARRC peptide described in Example <2-2> was injected into the bladder of each of the mouse, in which a bladder tumor was induced, and a normal mouse via the urethra, followed by reaction for 30 minutes. Then, the bladder was removed from each mouse and a frozen section was provided. The frozen section was stained by H&E staining according to a method known to one skilled in the art. […] Then, 1:200 dilution of a secondary antibody, to which a red fluorescence material (Alexa red) was bonded, was allowed to react with the cells at room temperature for 1 hour, followed by treatment with a mounting solution containing DAPI. Next, the cells were observed by using a fluorescence microscope.

[5] = system: bladder tumor cells separated from the human bladder tissue; assay: Binding of phage clones to bladder tumor cells and normal bladder cells from patient tissue (phage titer); type: cell-based; conditions: phage clones of Example 1
Protocol: FIG. 3 is a graph showing the binding specificity of six positive phage clones to the bladder tumor cells separated from the human bladder tissue and to the normal bladder cells;
Bladder tumor cells were separated from fresh bladder tumor tissue obtained from six patients with a bladder tumor by transurethral resection of bladder tumor, according to a known method. The cells were measured for the specific binding of the six individual phage clones (SEQ ID NO: 1 to SEQ ID NO: 6) described in Example 1 to the tumor cells and compared their binding to that of the normal cells. First, bladder tumor tissue and normal bladder tissue were pulverized finely to provide cell suspensions, and the six phages (5×10^9 pfu) were allowed react with the cells at 4° C. for 2 hours. A non-recombinant phage, T7 415-1b phage, was used as a control phage. Next, tumor cells and the normal epithelial cells were separated from the cell suspensions formed from the tumor tissue and the normal tissue by using magnetic beads coated with epithelial cell antibodies, in the same manner as described in Example <1-2>. Then, phages were detected from the cells and measured for the titer of phages, in the same manner as described in Example <1-2>.

Substance	fluorescence/binding in urine cells of the patient suffering from bladder tumor [1]	binding to bladder tumor tissue [2]	uptake in bladder on micro PET images [3]	fluorescence in control cells (urine of a normal human) [1]	detection of peptide in malignant melanoma tissue [4]	detection of peptide in lung tissue of a normal mouse (bladder tumor cells; 2 hours)	detection of peptide in normal bladder cells (bladder tumor cells; 2 hours, normal animal)	targeting of bladder tumor cells after injection into the blood (bladder tumor cells; circulation 2 hours, FIG. 6)	fluorescence in epithelial cells at the site where a bladder tumor was induced (bladder tumor tissue)	fluorescence in epithelial cells covering the normal bladder (bladder tumor tissue; normal animal)	binding capability among the six phage clones [5]
CDASRRNRC (YCDASRRNRC; disulfide 2-10; numbers in words are those of the source; also: 124I radiolabel) [control peptide, radioiodinated with added N-terminal tyrosine for PET, reference compound]	could not be bonded	substantially showed no binding	minimal	–	–	–	–	–	–	–	–
FITC-CSNRDARRC ({FITC}-CSNRDARRC; disulfide 1-9) [FITC-peptide 1, peptide 1 with FITC (fluorescein isothiocyanate) linked to its amino terminal]	green fluorescence was observed	bonded specifically	–	fluorescence was not detected	not detected	not detected	not detected	targets the bladder tumor cells	green fluorescence was observed	no fluorescence was observed	–
CSNRDARRC (disulfide 1-9; not fully specified (N-terminus)) [peptide 1]	–	–	–	–	–	–	–	–	–	–	highest binding capability
